The results in this text go back to article PMC12495412, “Coumarin/nitrogen-bearing heterocyclic hybrid-loaded electrospun PMMA/PVP nanofibrous scaffolds for accelerating topical wound healing rates: synthesis and in vitro bio-evaluation” (RSC Advances, 2025).

Structures are written as SMILES. ≈ marks a conversion by molar mass, not a printed value. Where “and” joins values, the source holds several entries; their conditions need not be identical. Identical values can stand only once.

Data set [1] relates to S. typhimurium. The experiment in a line: Agar-well diffusion of synthesized compounds. Format: cell-based, Salmonella typhimurium ATCC 14028. Particulars: Salmonella enterica, 100 μL of 10 mg mL^−1 per well, 24 h, 37 °C. An excerpt:
(§1) The antimicrobial activity of the prepared compounds was estimated through an agar-well diffusion method as adapted from the modified Kirby–Bauer protocol.[24] In this test, microbial pathogens were applied, including Staphylococcus aureus ATCC 25923 (S. aureus), Streptococcus mutans ATCC 25175 (S. mutans), Bacillus cereus ATCC 19637 (B. cereus), Bacillus aureus ATCC 25923 (B. aureus), Bacillus epidermidis ATCC 14990 (B. epidermidis), and Bacillus subtilis ATCC 11774 (B. subtilis) as Gram-positive bacteria, and Pseudomonas aeruginosa ATCC 27853 (P. aeruginosa), Klebsiella pneumonia ATCC 13883 (K. pneumonia), and Salmonella typhimurium ATCC 14028 (S. typhimurium), Salmonella pneumoniae ATCC 10031(S. pneumoniae), Escherichia coli ATCC 10536 (E. coli), and Salmonella paratyphi ATCC 9150 (S. paratyphi) as Gram-negative bacteria. Additionally, Candida albicans (ATCC 10231), Candida krusei ATCC 6258 (C. krusei), Candida glabrata ATCC 66032 (C. glabrata), andCandida parapsilosis ATCC 22019 (C. parapsilosis) were applied as models of unicellular fungi. The pre-inoculation cultures of the pathogens were prepared on Muller–Hinton broth and cultivated for 24 h at 37 °C. The agar-well test was prepared on Muller–Hinton agar with 100 μL of each pathogen pre-culture (0.5 McFarland conc.) and uniformly distributed on the plate surface. […]

Data set [2] deals with S. mutans. The experiment in a line: Agar-well diffusion of synthesized compounds. Format: cell-based, Streptococcus mutans ATCC 25175. Particulars: Streptococcus mutans, 100 μL of 10 mg mL^−1 per well, 24 h, 37 °C. An excerpt: (§2) The antimicrobial activity of the prepared compounds was estimated through an agar-well diffusion method as adapted from the modified Kirby–Bauer protocol.[24] In this test, microbial pathogens were applied, including Staphylococcus aureus ATCC 25923 (S. aureus), Streptococcus mutans ATCC 25175 (S. mutans), Bacillus cereus ATCC 19637 (B. cereus), Bacillus aureus ATCC 25923 (B. aureus), Bacillus epidermidis ATCC 14990 (B. epidermidis), and Bacillus subtilis ATCC 11774 (B. subtilis) as Gram-positive bacteria, and Pseudomonas aeruginosa ATCC 27853 (P. aeruginosa), Klebsiella pneumonia ATCC 13883 (K. pneumonia), and Salmonella typhimurium ATCC 14028 (S. typhimurium), Salmonella pneumoniae ATCC 10031(S. pneumoniae), Escherichia coli ATCC 10536 (E. coli), and Salmonella paratyphi ATCC 9150 (S. paratyphi) as Gram-negative bacteria. Additionally, Candida albicans (ATCC 10231), Candida krusei ATCC 6258 (C. krusei), Candida glabrata ATCC 66032 (C. glabrata), andCandida parapsilosis ATCC 22019 (C. parapsilosis) were applied as models of unicellular fungi. The pre-inoculation cultures of the pathogens were prepared on Muller–Hinton broth and cultivated for 24 h at 37 °C. The agar-well test was prepared on Muller–Hinton agar with 100 μL of each pathogen pre-culture (0.5 McFarland conc.) and uniformly distributed on the plate surface. Under aseptic conditions, six wells were created on the agar surface using a sterile corkborer (9 mm). To each well, 100 μL of the prepared compound (10 mg mL^−1) was separately inserted into each plate. All plates were incubated for 24 h at 37 °C; the established inhibition zones (Halo-zones) surrounding the wells indicated positive antimicrobial activity and were stated as the radius of the inhibition zone (mm).
For orientation: In agar diffusion tests the substance spreads into inoculated agar from a disc or well.

In data set [3] the test system is A549 cells. Kind of data set: Wound healing scratch (anti-migration) assay. Format: cell-based, human. Particulars: IC50 doses, 48 h. The method, then: To assess the anti-migration inhibition capability of newly synthesized derivatives, a wound healing technique was employed. A549 cells were planted in 12-well plates and kept alive at 37 °C until they achieved 80–90% fluency. The cell monolayers were smashed with a sterile tip and exposed to the prepared derivatives at IC50 doses. At 0 and 48 h of treatment, the wound closure area was captured and calculated by imaging analysis with the Cell-Sens software (Olympus, Japan).

Data set [4] concerns Caco-2 cells. Kind of data set: MTT anticancer assay. Format: cell-based. Particulars: for IC50: Homo sapiens, Caco-2, colon carcinoma cells, MTT, 48 h; for SI Caco-2: IC50 Wi-38 / IC50 Caco-2. An excerpt:
(§3) MTT assay: the normal cell line (Wi-38), colon cancer (Caco-2), lung cancer (A549), and breast cancer (MDA) cell lines were sourced from ATCC, USA. All different cell lines were cultivated and preserved in DMEM medium (SERANA, Germany), accompanied by 10% FBS (Gibco, USA) and 1% Pen/Strep solution (Lonza, USA). The newly prepared derivatives at various doses were considered for their anticancer activity and their safety on normal cells, applying MTT (3-[4, 5-dimethylthiazol]-2, 5-diphenyltetrazolium bromide) methods.[22] At first, all normal and cancer cell lines (1.0 ×10^4) were inoculated in 4 antiseptic 96-well tissue culture microplates and incubated for 24 h in a CO2 incubator. After cell attachments, the prepared derivatives were added to both normal Wi-38 cells at diverse concentrations of (6.25–200 μg mL^−1, 2-fold) and cancer cells at different concentrations of (3.125–100 μg mL^−1, 2-fold) in triplicate and incubated for another 48 h at 37 °C in a CO2 incubator with an adjusted concentration of 5%. After that, the treated cells were cleaned three times with PBS to remove debris and dead cells. Next, 200 μL of 0.5 mg mL^−1 MTT dye solution in PBS was mixed in each well, and the cells were further kept for 3 h at 37 °C in a 5% CO2 incubator. After that, MTT was removed and 200 μL of DMSO was added to each well. The optical density (OD) was recorded at 570 nm via a microplate reader (B.M.G. LabTech, Germany). Basic cells (untreated) were utilized as negative control cells, and 5-fluorouracil (5-FU) was included as a standard chemotherapy drug. The qualified cell viability (%) was evaluated as in equation (eqn (1)):1 Relative cell viability (%) = […] A1 is the OD of the examined derivative, A0 is the OD of the standard, and AU is the OD of the untreated cells.
(§4) Anticancer activity assay: the anticancer effect of each derivative was assessed by evaluating the half-maximal inhibitory concentration (IC50) value via the GraphPad Prism 7.0 software. However, SI (selective index) values of each derivative were estimated by splitting the IC50 value of healthy cells by the IC50 value of malignant cells, as previously reported.[23] The effects of the created derivatives on the morphology of MDA cells were evaluated at IC50 doses and captured by phase-contrast microscopy (Olympus, Germany) in comparison to untreated control cells.
Background: Tetrazolium dyes change colour on reduction, which living cells bring about.

Data set [5] concerns S. aureus. The experiment in a line: Agar-well diffusion of synthesized compounds. Format: cell-based, Staphylococcus aureus ATCC 25923. Particulars: Staphylococcus aureus, 100 μL of 10 mg mL^−1 per well, 24 h, 37 °C.
Excerpt: as §1

For data set [6], the system named is Wi-38 cells. The experiment in a line: MTT cytotoxicity assay, normal cells. Format: cell-based. Particulars: WI-38, normal human lung fibroblast cells, 48 h.
Excerpt: as §3, §4

In data set [7] the test system is all applied pathogens. The experiment in a line: Agar-well diffusion of synthesized compounds, whole panel. Format: cell-based.
Excerpt: as §2

Data set [8] concerns MDA cells. The experiment in a line: MTT anticancer assay. Format: cell-based, human. Particulars: Homo sapiens, Breast carcinoma cell, 48 h.
Excerpt: as §3, §4

In data set [9] the test system is A549 cells. The experiment in a line: MTT anticancer assay. Format: cell-based, human. Particulars: Homo sapiens, A549, lung carcinoma cells, 48 h.
Excerpt: as §3, §4

The subject of data set [10] is K. pneumonia. The experiment in a line: Agar-well diffusion of synthesized compounds. Format: cell-based, Klebsiella pneumonia ATCC 13883. Particulars: Klebsiella pneumoniae, 100 μL of 10 mg mL^−1 per well, 24 h, 37 °C.
Excerpt: as §1

For data set [11], the system named is P. aeruginosa. Kind of data set: Agar-well diffusion of synthesized compounds. Format: cell-based, Pseudomonas aeruginosa ATCC 27853. Particulars: Pseudomonas aeruginosa, 100 μL of 10 mg mL^−1 per well, 24 h, 37 °C.
Excerpt: as §1

`Cc1ccc(-c2nnc(Nc3ccc(NC(=O)c4cc5ccccc5oc4=O)cc3)c3ccccc23)cc1` [Compound C, 2-oxo-N-(4-((4-(p-tolyl)phthalazin-1-yl)amino)phenyl)-2H-chromene-3-carboxamide]: the zone of inhibition (in general, the extent of the growth-free halo in a diffusion test) at 10 mg/mL in data set [1] is about 15.5 mm; in data set [2] it was about 17.2 mm; in [5], about 19.5 mm. Moreover, the Migration inhibition in data set [3] was 74.45% and 79.09%. Further, the IC50 – broadly, the concentration that inhibits the measured activity by half – in [4] came out at 7.11 ± 1.68 µg/mL (≈ 14.3 µM); in data set [6], 137 ± 11.7 µg/mL (≈ 275 µM); in data set [8], 6.06 ± 0.81 µg/mL (≈ 12.2 µM); in data set [9], 12.2 ± 1.36 µg/mL (≈ 24.4 µM). The “SI Caco-2” value in data set [4] was found to be 19.25 ± 1.36. Moreover, the “Antimicrobial activity” value in [7] is given as “wide-spectrum antibacterial activity”.
As to `O=C(Nc1ccc(Nc2ccnc3cc(Cl)ccc23)cc1)c1cc2ccccc2oc1=O` [Compound A, N-(4-((7-chloroquinolin-4-yl)amino)phenyl)-2-oxo-2H-chromene-3-carboxamide], the zone of inhibition at 10 mg/mL in [10], in data set [2] and in [11] was about 14 mm in each case. Besides, the IC50 turned out to be 9.03 ± 1.53 µg/mL (≈ 20.4 µM) in data set [4], 139 ± 12 µg/mL (≈ 314 µM) in data set [6], 5.46 ± 0.27 µg/mL (≈ 12.4 µM) in data set [8] and 11.5 ± 1.75 µg/mL (≈ 26 µM) in data set [9]. For the same molecule, the “SI Caco-2” value in data set [4] was 15.38 ± 1.33. Further, the “Antimicrobial activity” value in [7] is on record as “wide-spectrum antibacterial activity”.
